Assay results taken from US20220023335A1, “COMPOSITION FOR PREVENTION AND/OR IMPROVEMENT OF ADVERSE DRUG REACTION, SYMPTOM ASSOCIATED WITH ADVERSE DRUG REACTION, AND/OR ADVERSE REACTION ASSOCIATED WITH MEDICAL TREATMENT” (MiZ Company Limited, priority 2020, published 2022).

How the values were obtained:
[1] = known; cited from earlier work
[2] = test system: adverse drug reaction of persistent insomnia, malaise; details: person
Excerpt: A patient with esophageal cancer experienced an adverse drug reaction of persistent insomnia due to treatment with anticancer agents, lost appetite because of malaise, and could not even go out. […] The inhalation time per day was two to three hours. […] When they drank too much alcohol, they used to have a severe hangover.

[3] = test system: adverse reactions to hemodialysis (walking difficulty, edema); details: person on hemodialysis, hydrogen approximately 5% in air, 200 mL/min, three to four hours per day
Excerpt: A patient developed renal failure as a complication of diabetes mellitus and has been receiving hemodialysis since 2006.

[4] = test system: adverse drug reactions of lost hair on the head and rough skin; details: person, hydrogen gas 6.6% by volume, approximately 120 mL/min
[5] = test system: adverse drug reactions of malaise and rough skin; details: person; hydrogen gas 4% to 5% by volume, approximately 200 mL/min, three to five hours per day, plus 500 mL per day of 7 ppm hydrogen water; three months
[6] = test system: rhabdomyolysis caused by the antibacterial agent; details: person, hydrogen gas 6.6% by volume, approximately 120 mL/min, 90 minutes per day for two weeks
Excerpt: They lost strength in the body and was taken to hospital by ambulance. […] They were discharged from hospital one week later, but the tiredness persisted, and they had difficulty in putting strength into the limbs. […] Their condition improved to the extent that they could have a walk.

[7] = test system: adverse drug reactions of sleepiness and tiredness; details: person, three days later
[8] = test system: malaise and nausea after radiotherapy; details: cancer patient after radiotherapy, hydrogen gas 3% to 4% by volume, approximately 120 mL/min

## [2H][2H] [D2, deuterium]
[1]
  superoxide eliminating effect compared with H2: stronger

## [HH] [hydrogen gas, molecular hydrogen]
[2]; esophageal cancer, hydrogen gas 1.3% by volume, approximately 30 mL/min, two to three hours per day, following the second inhalation
  sleep (insomnia): could sleep soundly
[2]; hydrogen gas 1.3% by volume, approximately 30 mL/min, two to three hours per day
  ability to go out / body feeling: the patient was able to go out
[2]; hydrogen inhaled before going to sleep
  hangover after too much alcohol: a hangover started improving earlier than usual
[3]; from 10 days after initiation
  walking difficulty: able to walk
[3]; from one month after initiation
  edema after dialysis: edema was reduced
[4]; sarcoma, anticancer agents and Opdivo, approximately one month later
  rough skin: the rough skin started improving
[4]; inhalation continued for six months after anticancer treatment
  hair on the head: started growing
[5]
  malaise: malaise subsided
  skin condition: the skin started becoming lustrous
[6]; new quinolone antibacterial agent
  strength in the limbs: became gradually able to put strength into the limbs
[6]
  tiredness: reduced tiredness
[7]; cedar pollinosis, hydrogen gas 6.6% by volume, approximately 120 mL/min, 90 minutes to three hours per day, plus 7 ppm hydrogen water 500 mL to 1 L per day
  tiredness of the body after taking the drugs: reduced
[7]; hydrogen gas 6.6% by volume plus 7 ppm hydrogen water
  sleepiness / clearness of the head: they felt that the head was cleared
[8]; 90 minutes later
  nausea: Nausea was gradually resolving
[8]; one hour after start of inhalation
  malaise (body feeling): they felt the body becoming light
